Article PMC5944028, “Nonclinical and clinical pharmacological characterization of the potent and selective cathepsin K inhibitor MIV-711” (Journal of Translational Medicine, 2018)
pIC50, pKi: −log10 of the molar value.

Tests used:
dog cathepsin K = target: T1, dog cathepsin K (Canis lupus familiaris, UniProt Q3ZKN1); assay: Recombinant enzyme assay, dog cathepsin K; assay type: biochemical; details: geometric mean
T1 construct: made in house; host or cells: E. coli
Description: (§1) Recombinant cathepsin K enzymes from all species were expressed in E. coli, purified and activated. Human cathepsin F and cathepsin S were expressed in Baculovirus, purified and activated. Purified human cathepsins B and H (Athens Research Technology), cathepsin L (Calbiochem), and cathepsin V (R & D Systems) were purchased.
(§2) H-D-Ala_Leu-Lys-AMC was used as the substrate in assays of cathepsin K from non-rodent species (human, dog, rabbit and guinea pig), and Z-Leu-Arg-AMC was used as the substrate in assays of cathepsin K from rodent species (mouse and rat). […]
(§3) Assays were carried out in white polystyrene 96-well plates in a final volume of 100 µL. […] Plates were read in a Fluoroskan Ascent (Thermo Labsystems, Helsinki, Finland) in kinetic mode, with excitation and emission filters of 390 and 460 nm, respectively. Rates were determined by linear regression of the fluorescence/time data in Excel. Rates were fitted by non-linear regression to either the competitive inhibition equation, with the substrate concentration fixed at the value in the assay and the KM fixed to the value previously determined, or the IC50 equation using GraphPad Prism (GraphPad, version 6, San Diego, USA) to obtain Ki or IC50 values, respectively.

serum CTX-I = assay: Human serum CTX-I, single ascending dose study; assay type: in vivo, human healthy subjects
Description: Twenty-seven healthy male and female subjects (18 male and 9 female) of any ethnic origin (24 White, 1 Asian, 1 Black, 1 Black/Caribbean White), aged between 19 and 64 years, and with a body mass index (BMI) between 18.0 and 32.0 kg/m^2, were selected for this study. Inclusion criteria for enrollment followed the standard practice for first-in-man studies.
This was a randomized, double-blind, placebo-controlled, sequential, single-ascending dose study conducted at a single site with the objective of evaluating the safety, tolerability, pharmacokinetics (PK) and pharmacodynamics of MIV-711. Subjects were randomized into 3 groups using a computer-generated pseudo-random permutation procedure. Each group consisted of 9 subjects with at least 3 subjects of each gender per group and subjects participated in 1–2 treatment periods. There was a minimum of 10 days between dose escalations and a minimum of 20 days between dosing occasions for individual subjects. For each subsequent dosing occasion, the decision to escalate the dose to the next level was taken after a thorough review of the safety, tolerability and PK data. In each treatment period, 7 subjects received MIV-711 and 2 received placebo (comprising of 1 subject of each gender). Dosing occurred on the morning of Day 1 following an overnight fast and subjects were kept in the fasted state until approximately 4.5 h after dosing. MIV-711 was given as a combination of 10 or 40 mg hard gelatin capsules, while placebo was given in similar capsules of identical appearance.
Blood samples were collected at pre-dose, 4, 8, 24 and 48 h post-dose and processed into serum for the measurement of CTX-I concentrations.
The quantification of CTX-I in monkey plasma samples and human serum samples was performed using a commercially available kit (Serum CrossLaps ELISA, IDS Nordic, Herlev, Denmark). The levels of CTX-I in monkey urine samples were measured using a commercially available kit (Urine BETA CrossLaps ELISA, IDS Nordic). The quantification of NTX-I in monkey samples was performed using a commercially available kit (Osteomark NTx Urine, Wampole Laboratories, Inc, Princeton, USA). Urinary levels of CTX-II in monkey samples were measured using a commercially available kit (Urine CrossLaps EIA, IDS Nordic). The concentrations of biomarkers in the urine samples were corrected for creatinine concentrations. The creatinine levels in urine were determined at Swedish University of Agricultural Sciences, using the enzymatic assay (cat no. 8L24-01) on the Abbott system Architect c4000.

[1] = test system: > 70 different ion channels, receptors, transporters and CYP enzymes; assay: PanLabs broad panel; details: 10 µmol/L
Protocol: MIV-711 was analyzed against > 70 different ion channels, receptors, transporters and cytochrome P450 (CYP) enzymes at a concentration of 10 µmol/L at PanLabs (Taipei, Taiwan).

[2] = test system: differentiated human osteoclasts; assay: Osteoclast-mediated bone resorption, human bone fragments (CTX-I release); assay type: cell-based
Protocol: The effect of MIV-711 on osteoclast-mediated bone resorption was evaluated using a complete kit from Cambrex Bio Science (Walkersville, MD, USA). Briefly, primary osteoclasts were generated from osteoclast precursors by incubation with RANK ligand and M-CSF in 96-well plates coated with human bone fragments, according to the instructions from the provider. After differentiation (minimum of 5 days), osteoclasts were exposed to different fixed concentrations of MIV-711 for 24 h. The resorption activity of the cultures was determined by quantifying CTX-I in the culture supernatants using a commercially available enzyme-linked immunosorbent assay (CrossLaps®, Nordic Bioscience Diagnostics A/S, Herlev, Denmark). Controls exposed to medium without inhibitor were set to 100%. CTX-I levels from MIV-711-treated cells were normalized and expressed as % of control. Curves were generated plotting the concentration of MIV-711 versus % of control. The curves were fitted to the Hill (four parameter) equation to generate an IC50 value using GraphPad Prism software. The IC50 value was defined as the concentration of MIV-711 that reduced CTX-I levels to 50% of control.

rat cathepsin K = target: T2, rat cathepsin K (Rattus norvegicus, UniProt O35186); assay: Recombinant enzyme assay, rat cathepsin K; assay type: biochemical; details: footnote a: IC50
T2 construct: made in house; host or cells: E. coli
Description: as §1, §2, §3

mouse cathepsin K = target: T3, mouse cathepsin K (Mus musculus, UniProt P55097); assay: Recombinant enzyme assay, mouse cathepsin K; assay type: biochemical; details: footnote a: IC50
T3 construct: made in house; host or cells: E. coli
Description: as §1, §2, §3

human cathepsin F = target: T4, human cathepsin F (Homo sapiens, UniProt Q9UBX1); assay: Enzyme assay, human cathepsin F; assay type: biochemical
T4 construct: made in house
Description: as §1, §2, §3

T4 sequence (Q9UBX1 271-484): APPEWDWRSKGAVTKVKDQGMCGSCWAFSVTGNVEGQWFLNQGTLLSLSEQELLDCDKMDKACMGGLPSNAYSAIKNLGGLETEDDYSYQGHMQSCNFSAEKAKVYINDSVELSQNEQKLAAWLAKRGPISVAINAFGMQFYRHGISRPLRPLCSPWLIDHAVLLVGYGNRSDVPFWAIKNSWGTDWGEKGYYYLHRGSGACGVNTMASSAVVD
T3 sequence (P55097 115-329): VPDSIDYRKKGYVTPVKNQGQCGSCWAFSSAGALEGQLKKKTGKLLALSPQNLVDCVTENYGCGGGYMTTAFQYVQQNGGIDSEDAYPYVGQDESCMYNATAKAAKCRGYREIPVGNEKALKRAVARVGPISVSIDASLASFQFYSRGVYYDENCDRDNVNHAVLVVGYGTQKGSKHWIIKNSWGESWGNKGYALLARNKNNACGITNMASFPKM
T1 sequence (Q3ZKN1 116-330): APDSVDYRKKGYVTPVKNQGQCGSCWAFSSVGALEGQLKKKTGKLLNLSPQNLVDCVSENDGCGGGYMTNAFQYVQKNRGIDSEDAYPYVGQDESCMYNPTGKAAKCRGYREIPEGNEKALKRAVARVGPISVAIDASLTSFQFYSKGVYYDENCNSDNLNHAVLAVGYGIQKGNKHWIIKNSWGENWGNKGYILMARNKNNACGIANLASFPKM
T2 sequence (O35186 115-329): as the sequence (P55097 115-329) above, with T58S, I131V, A140T, S175N, H177Y, A194V, M209L counted along it

`C#C[C@@H]1CN(C(=O)[C@H](CC(C)C)NC(=O)c2ccc(-c3nc(N4CCN(C)CC4)sc3F)cc2)[C@@H]2C(=O)CO[C@H]12` [MIV-711] was tested, and the pKi (dog cathepsin K) was 8.82, the “Inhibition of serum CTX-I versus baseline at 24 h” value (serum CTX-I; 20 mg single dose) was 20% and the “Reduction of CTX-I at 24 h post-dose” value (serum CTX-I; 100 mg single dose) was 54%. For the same molecule, the “Inhibition of serum CTX-I versus baseline at 24 h” value (serum CTX-I; 600 mg single dose) was 79%, the “Exposure required for 50% reduction of CTX-I at 24 h post dose” value (serum CTX-I; AUC0–24h) was 1.3 µmol/L/h and the “Responses (more than 50% inhibition) in broad panel” value [1] was “No significant responses”. The “Concentration needed for effect on bone resorption in vitro relative to Ki” value [2] was “around 50 fold”, the pIC50 ([2]; human bone fragments, 24 h, CTX-I, geometric mean) was 7.37 and the pIC50 (rat cathepsin K) was 6.62. For the same molecule, the pIC50 (mouse cathepsin K) was 6.00 and the pKi (human cathepsin F) was 5.55.
